Test results reported in patent US20050124620A1, “Pharmaceutical compounds” (priority 2002, published 2005).

Columns and labels:
α p38 = α p38 (Homo sapiens, UniProt Q16539); experiment: p38 MAP kinase inhibitory activity (33P-ATP / myelin basic protein filter assay); type: biochemical; details: for IC50: MKK6-activated α p38, MBP substrate
Method: Compounds of the invention were tested for p38 MAP kinase inhibitory activity using the following protocol.
The reaction was allowed to proceed for fifty minutes before being stopped with an excess of ortho-phosphoric acid (30 μl at 2%). γ^33 P-ATP which remained unincorporated into the myelin basic protein was separated from phoshorylated MBP on a Mlipore (RTM) MAPH filter plate. The wells of the MAPH plate were wetted with 0.5% orthophosphoric acid, and then the results of the reaction were filtered with a Millipore vacuum filtration unit through the wells. Following filtration, the residue was washed twice with 200 μl of 0.5% orthophosphoric acid. Once the filters had dried, […] of Microscint 20™ scintillant was added, and then counted on a Packard Topcount™ counter for 30 seconds. The percentage inhibition of the p38 activity was calculated and plotted in order to determine the concentration of the test compound required to inhibit 50% of the p38 activity (IC50).

THP-1 cells = experiment: Inhibition of LPS-induced TNF-α production in THP-1 cells, in vitro assay; type: cell-based; details: Homo sapiens; PMA-treated THP-1 cells, 1 μg/ml LPS, 6 h, TNF-α by ELISA
Method: The ability of the compounds of this invention to inhibit the TNF-α release was determined using a rninor modification of the methods described in Rawlins P., et al., “Inhibition of endotoxin-induced TNF-α production in macrophages by 5Z-7-oxo-zeaenol and other fungal resorcyclic acid lactones,” International J. of Immunopharmacology, 21, 799, (1999).
THP-1 cells, human monocytic leukaemic cell line, ECACC) were maintained in culture medium [RPMI 1640 (Invitrogen) and 2 mM L-Glutamine supplemented with 10% foetal bovine serum (Invitrogen)] at approximately 37° C. in humidified 5% CO2 in stationary culture. TBP-1 cells were suspended in culture medium containing 50 ng/ml PMA (SIGMA), seeded into a 96-well tissue culture plate (IWAKI) at 1×10^5 cells/well (100 μl/well) and incubated as described above for approximately 48 h. The medium was then aspirated, the wells washed twice in Phosphate Buffered Saline and 1 μg/ml LPS (SIGMA) in culture medium was added (200 μl/well).
Test compounds were reconstituted in DMSO (SIGMA) and then diluted with the culture medium such that the final DMSO concentration was 0.1%. […] Culture supernatants were collected and the amount of human TNF-α present was determined by ELISA (R&D Systems) performed according to the manufacturer's instructions. […]

Sequence of α p38 (Q16539 whole entry): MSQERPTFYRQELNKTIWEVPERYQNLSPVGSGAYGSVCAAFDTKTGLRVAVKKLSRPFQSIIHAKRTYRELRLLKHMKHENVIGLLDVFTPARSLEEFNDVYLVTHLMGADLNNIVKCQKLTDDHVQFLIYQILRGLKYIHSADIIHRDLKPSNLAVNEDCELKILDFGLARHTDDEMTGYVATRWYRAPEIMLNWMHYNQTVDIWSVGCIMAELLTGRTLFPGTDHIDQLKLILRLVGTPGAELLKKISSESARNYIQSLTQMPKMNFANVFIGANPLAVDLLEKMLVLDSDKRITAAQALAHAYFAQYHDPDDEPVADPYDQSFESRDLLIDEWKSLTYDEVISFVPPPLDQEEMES

IC50 (α p38; 50 min reaction) | Compound | also measured
177 µM | 3-(2-(4-Pyridyl)ethyl-7-azaindole [Example 12] | –
33 µM | c1ccc2c(CCc3ccncc3)c[nH]c2c1 [Example 1, 3-(2-(4-Pyridyl)ethyl)indole] | –
240 µM | Cn1cc(CCc2ccncc2)c2ccccc21 [Example 2, 1-Methyl-3-(2-(4-pyridyl)ethyl)indole] | –
820 µM | c1ccc(CCc2c[nH]c3ccccc23)nc1 [Example 3, 3-(2-(2-Pyridyl)ethyl)indole] | –
250 µM | Cc1ccc2[nH]cc(CCc3ccncc3)c2c1 [Example 4, 5-Methyl-3-(2-(4-pridyl)ethyl)indole] | –
122 µM | Clc1ccc2[nH]cc(CCc3ccncc3)c2c1 [Example 5, 5-Chloro-3-(2-(4-pyridyl)ethyl)indole] | –
300 µM | O=[N+]([O-])c1ccc2[nH]cc(CCc3ccncc3)c2c1 [Example 6, 5-Nitro-3-(2-(4-pyridyl)ethyl)indole] | –
650 µM | CC(=O)Nc1ccc2[nH]cc(CCc3ccncc3)c2c1 [Example 7, 5-Acetamido-3-(2-(4-pyridyl)ethyl)indole] | –
270 µM | Cc1[nH]c2ccccc2c1CCc1ccncc1 [Example 8, 2-Methyl-3-(2-(4-pyridyl)ethyl)indole] | –
111 µM | Cc1cccc2[nH]cc(CCc3ccncc3)c12 [Example 9, 4-Methyl-3-(2-(4-pyridyl)ethyl)indole] | –
35 µM | Cc1cccc2c(CCc3ccncc3)c[nH]c12 [Example 10, 7-Methyl-3-(2-(4-pyridyl)ethyl)indole] | –
45 µM | Fc1cccc2[nH]cc(CCc3ccncc3)c12 [Example 11, 4-Fluoro-3-(2-(4-pyridyl)ethyl)indole] | –
40 µM | O=C(Nc1ccc2[nH]cc(CCc3ccncc3)c2c1)c1ccccc1 [Example 13B, 5-Benzamido-3-(2-(pyrid-4-yl)ethyl)indole] | –
– | O=C(Nc1ccc2[nH]cc(CCc3ccncc3)c2c1)c1cc(F)cc(N2CCOCC2)c1 [Example 14B, 5-(3-Fluoro-5-(4-morpholino)benzamido)-3-(2-(4-pyridyl)ethyl)indole] | IC50 (α p38; unit stated in cell): 0.5 µM; IC50 (THP-1 cells): 0.53 µM
– | O=C(Nc1ccc2c(CCc3ccncc3)c[nH]c2c1)c1cc(F)cc(N2CCOCC2)c1 [Example 15B, 6-(3-Fluoro-5-(4-morpholino)benzamido)-3-(2-(4-pyridyl)ethyl)indole] | inhibition at 3 µM (α p38; @ 3 μM, read-out: percentage inhibition of the p38 activity): 36%
2 µM | O=C(Nc1ccc2[nH]cc(CCc3ccncc3)c2c1)c1cccc(OC(F)(F)F)c1 [Example 16B, 5-(3-Trifluoromethoxybenzamido)-3-(2-(4-pyridy)ethyl)indole] | –
4 µM | O=C(Nc1ccc2[nH]cc(CCc3ccncc3)c2c1)c1cccc(C(F)(F)F)c1 [Example 17B] | –

IC50 (α p38; 50 min reaction) | Compound | also measured
3 µM | O=C(Nc1ccc2c(ccn2CCc2ccncc2)c1)c1cc(F)cc(N2CCOCC2)c1 [Example 18B, 5-(3-Fluoro-5-(4-morpholino)benzamido)-1-(2-(4-pyridyl)ethyl)indole] | –
200 µM | c1ccc2c(c1)ccn2CCc1ccncc1 [Example 19, 1-(2-(4-pyridyl)ethyl)indole] | –
– | Nc1ccc2[nH]cc(CCc3ccncc3)c2c1 [Example 20A, 5-Amino-3-(2-(4-pyridyl)ethyl)indole] | inhibition at 1000 µM (α p38; @ 1 mM, read-out: percentage inhibition of the p38 activity): 23%
28 µM | O=C(Nc1ccccc1)Nc1ccc2[nH]cc(CCc3ccncc3)c2c1 [Example 20B, 5-(Phenylcarbamoylamino)-3-(2-(4-pyridyl)ethyl)indole] | –
120 µM | Clc1nccc(CCc2c[nH]c3ccccc23)n1 [Example 22, 3-(2-(2-Chloro-4-pyrimidinyl)ethyl)indole] | –
1.3 µM | O=C(Nc1ccc2[nH]cc(CCc3ccncc3)c2c1)c1ccnc(N2CCOCC2)c1 [Example 23B, 5-(2-(4-Morpholino)isonicotinamido)-3-(2-(4-pyridyl)ethyl)indole] | –
– | O=C1c2ccccc2C(=O)N1c1ccc2[nH]cc(CCc3ccncc3)c2c1 [Example 24B, 5-(1-Phthalimido)-3-(2-(4-pyridyl)ethyl)indole] | inhibition at 300 µM (α p38; @ 300 μM, read-out: percentage inhibition of the p38 activity): 25%
475 µM | Nc1ccc2ccn(CCc3ccncc3)c2c1 [Example 25A, 6-Amino-1-(2-(4-pyridyl)ethyl)indole] | –
– | O=C(Nc1ccc2[nH]cc(CCc3ccncc3)c2c1)c1ccc(N2CCCC2=O)cc1 [Example 26, 5-(4-(2-oxo-pyrrolidin-1-yl)benzamido)-3-(2-(4-pyridyl)ethyl)indole] | inhibition at 1 µM (α p38; @ 1 μM, read-out: percentage inhibition of the p38 activity): 28%
38 µM | OCCNc1nccc(CCc2c[nH]c3ccccc23)n1 [Example 27] | –
1.5 µM | CC(C)(CO)Nc1nccc(CCc2c[nH]c3ccccc23)n1 [Example 28, 3-(2-(2-(3-Hydroxy-2-methyl-prop-2-ylamino)-4-pyrimidinyl)ethyl)indole] | –
3 µM | C[C@H](Nc1nccc(CCc2c[nH]c3ccccc23)n1)c1ccccc1 [Example 29, 3-(2-(2-((S)-(−)-α-methylbenzylamino)-4-pyrimidinyl)ethyl)indole] | –
15 µM | C[C@@H](Nc1nccc(CCc2c[nH]c3ccccc23)n1)c1ccccc1 [Example 30, 3-(2-(2-((R)-(+)-α-methylbenzylamino)-4-pyrimidinyl)ethyl)idole] | –
715 µM | c1ccc2c(CCc3ccncn3)c[nH]c2c1 [Example 31, 3-(2-(4-Pyrimidinyl)ethyl)indole] | –
– | CC(C)(C)c1cc(NC(=O)Nc2ccc3[nH]cc(CCc4ccncc4)c3c2)n(-c2ccccc2)n1 [Example 32, 5-(3-tert-Butyl-1-phenylpyrazol-5-ylcarbamoylamino)-3-(2-(4-pyridyl)ethyl)indole] | IC50 (α p38; unit stated in cell): 0.145 µM
– | Cc1ccc(S(=O)(=O)n2cc(CCc3cccnc3)c3ccccc32)cc1 [Example 34, 1-[(4-Methylphenyl)sulphonyl]-3-(2-(3-pridyl)ethyl)indole] | IC50 (α p38; unit stated in cell): > 1000 µM
